Laboratory results reported in paper PMC3340406, “Molecular and Functional Characterization of Novel Fructosyltransferases and Invertases from Agave tequilana” (PLoS ONE, 2012).

Key:
Format in all cases: biochemical
AtqCwinv-1 [1] = molecular target: T1, AtqCwinv-1 (Agave tequilana, UniProt I1ZBQ2); assay: HPAEC-PAD, exohydrolase activity; settings: 100 mM 1-kestose, 50 mM sodium acetate pH 4.3, 30 °C; 10 µg affinity purified protein
T1 construct: gene Cwinv1; mature region, signal peptide (24 aa) removed, His-tagged, secreted from Pichia pastoris X-33 (pPICZalphaA); full length 575 aa; about 75 kDa on gel
T1 sequence (I1ZBQ2 25-575): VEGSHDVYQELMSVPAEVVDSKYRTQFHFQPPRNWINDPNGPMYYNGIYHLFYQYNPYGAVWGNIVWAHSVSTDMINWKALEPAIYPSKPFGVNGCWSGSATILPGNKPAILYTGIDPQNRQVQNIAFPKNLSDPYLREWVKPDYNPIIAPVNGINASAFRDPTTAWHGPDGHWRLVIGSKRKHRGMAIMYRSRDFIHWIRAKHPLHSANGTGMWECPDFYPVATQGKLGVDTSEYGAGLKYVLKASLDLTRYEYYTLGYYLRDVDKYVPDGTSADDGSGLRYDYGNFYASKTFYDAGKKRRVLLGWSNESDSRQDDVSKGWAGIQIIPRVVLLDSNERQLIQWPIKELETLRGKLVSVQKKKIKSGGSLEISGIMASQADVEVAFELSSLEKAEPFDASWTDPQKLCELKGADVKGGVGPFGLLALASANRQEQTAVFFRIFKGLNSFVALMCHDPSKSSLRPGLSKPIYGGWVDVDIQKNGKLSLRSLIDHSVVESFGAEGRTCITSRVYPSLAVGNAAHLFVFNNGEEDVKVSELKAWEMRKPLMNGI

Atq6G-FFT-1 = molecular target: T2, Atq6G-FFT-1 (Agave tequilana, UniProt I1ZBQ0); assay: HPAEC-PAD product analysis; settings: 50 mM 1-kestose (stock contains some sucrose and nystose), 50 mM sodium acetate pH 5.5, 30 °C; 20 µg total protein extract
T2 construct: gene FFT1; mature region, signal peptide (34 aa) removed, His-tagged, secreted from Pichia pastoris X-33 (pPICZalphaA); full length 627 aa; about 80 kDa on gel
T2 sequence (I1ZBQ0 35-627): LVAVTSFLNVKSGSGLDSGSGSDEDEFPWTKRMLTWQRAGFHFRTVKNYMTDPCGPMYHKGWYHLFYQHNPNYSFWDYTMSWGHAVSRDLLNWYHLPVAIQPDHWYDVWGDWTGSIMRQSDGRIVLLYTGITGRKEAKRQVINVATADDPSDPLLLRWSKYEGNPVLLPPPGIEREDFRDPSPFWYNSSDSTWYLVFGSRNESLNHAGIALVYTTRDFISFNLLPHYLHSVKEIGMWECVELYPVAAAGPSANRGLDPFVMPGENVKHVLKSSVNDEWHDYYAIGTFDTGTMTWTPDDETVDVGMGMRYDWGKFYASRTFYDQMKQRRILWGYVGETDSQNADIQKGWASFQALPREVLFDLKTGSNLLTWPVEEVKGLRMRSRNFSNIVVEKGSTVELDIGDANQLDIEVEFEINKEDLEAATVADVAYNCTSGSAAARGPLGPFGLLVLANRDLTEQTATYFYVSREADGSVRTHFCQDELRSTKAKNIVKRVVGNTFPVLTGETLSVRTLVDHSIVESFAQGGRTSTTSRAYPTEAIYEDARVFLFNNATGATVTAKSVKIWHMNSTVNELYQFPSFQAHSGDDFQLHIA

AtqCwinv-1 [2] = molecular target: T1, AtqCwinv-1; assay: TLC and HPAEC-PAD, sucrose hydrolysis; settings: 100 mM sucrose, 50 mM sodium acetate pH 4.3, 30 °C; 10 µg affinity purified protein

Row | SMILES | HPAEC-PAD, exohydrolase activity (AtqCwinv-1 [1]) | HPAEC-PAD product analysis (Atq6G-FFT-1) | TLC and HPAEC-PAD, sucrose hydrolysis (AtqCwinv-1 [2])
1 | OC[C@H]1O[C@@](CO)(OC[C@@]2(O[C@H]3O[C@H](CO)[C@@H](O)[C@H](O)[C@H]3O)O[C@H](CO)[C@@H](O)[C@@H]2O)[C@@H](O)[C@@H]1O [1-kestose] | some exohydrolytic activity occurred when sucrose was replaced by 1-kestose as substrate | 1-kestose was used as substrate no neokestose was produced but a tetrasaccharide 4c molecule | 
2 | OC[C@H]1O[C@@](CO)(O[C@H]2O[C@H](CO)[C@@H](O)[C@H](O)[C@H]2O)[C@@H](O)[C@@H]1O [sucrose] |  |  | AtqCwinv-1 produced fructose and glucose when incubated with sucrose as the sole substrate
